Drawing on ChEMBL document CHEMBL3407484, “Evolution in medicinal chemistry of ursolic acid derivatives as anticancer agents” (Eur J Med Chem, 2015), this text covers IC50 for 2 compounds.

The structures appear in SMILES notation. pIC50: −log10 of the molar value.

Common to all, as to format: functional, cell-based
The subject of one test is HeLa. The experiment in a line: Cytotoxicity against human HeLa cells by MTT assay. Background: Formazan colour is commonly taken as a measure of viable cells.
Test [1] is described as follows: Cytotoxicity against human SKOV3 cells by MTT assay. The settings on record: SK-OV-3.
A short description of test [2]: Cytotoxicity against human BGC823 cells by MTT assay. The settings on record: BGC-823.
In another test the test system is HepG2. The experiment in a line: Cytotoxicity against human HepG2 cells by MTT assay.

The pIC50 is the negative decadic logarithm of the IC50, by convention in mol/L. Read a low pIC50 as a high IC50. Turning to `CC(=O)O[C@H]1CC[C@]2(C)[C@H]3CC=C4[C@@H]5[C@@H](C)[C@H](C)CC[C@]5(C(=O)NCCCN5CCOCC5)CC[C@@]4(C)[C@]3(C)CC[C@H]2C1(C)C`, the pIC50 is 5.57 with HeLa, 5.13 in test [1] and 5.35 in test [2].
In the test on HepG2, `C[C@H]1[C@H](C)CC[C@]2(C(=O)O)CC[C@]3(C)C(=CC[C@@H]4[C@@]5(C)CC[C@H](OC(=O)CCC(=O)OCCOc6no[n+]([O-])c6S(=O)(=O)c6ccccc6)C(C)(C)[C@@H]5CC[C@]43C)[C@H]12` had a pIC50 of 5.49.
